From paper PMC11358156 (Nature Cardiovascular Research, 2024)

What was measured:
[1] = target: T1, fast skeletal myosin MYH1 (Oryctolagus cuniculus, UniProt A0A5F9CQ93); assay: myofibril ATPase assay; format: biochemical
T1 construct: with sarcomere proteins (actin, troponin, tropomyosin) of the myofibril

[2] = target: T2, β-cardiac myosin (β-MHC) (Bos taurus, UniProt Q9BE39); assay: co-crystal structure at […] Å with aficamten and vanadate; format: binding
T2 construct: gene MYH7; motor domain (MD) in the pre-powerstroke state
T2 sequence (Q9BE39 1-782): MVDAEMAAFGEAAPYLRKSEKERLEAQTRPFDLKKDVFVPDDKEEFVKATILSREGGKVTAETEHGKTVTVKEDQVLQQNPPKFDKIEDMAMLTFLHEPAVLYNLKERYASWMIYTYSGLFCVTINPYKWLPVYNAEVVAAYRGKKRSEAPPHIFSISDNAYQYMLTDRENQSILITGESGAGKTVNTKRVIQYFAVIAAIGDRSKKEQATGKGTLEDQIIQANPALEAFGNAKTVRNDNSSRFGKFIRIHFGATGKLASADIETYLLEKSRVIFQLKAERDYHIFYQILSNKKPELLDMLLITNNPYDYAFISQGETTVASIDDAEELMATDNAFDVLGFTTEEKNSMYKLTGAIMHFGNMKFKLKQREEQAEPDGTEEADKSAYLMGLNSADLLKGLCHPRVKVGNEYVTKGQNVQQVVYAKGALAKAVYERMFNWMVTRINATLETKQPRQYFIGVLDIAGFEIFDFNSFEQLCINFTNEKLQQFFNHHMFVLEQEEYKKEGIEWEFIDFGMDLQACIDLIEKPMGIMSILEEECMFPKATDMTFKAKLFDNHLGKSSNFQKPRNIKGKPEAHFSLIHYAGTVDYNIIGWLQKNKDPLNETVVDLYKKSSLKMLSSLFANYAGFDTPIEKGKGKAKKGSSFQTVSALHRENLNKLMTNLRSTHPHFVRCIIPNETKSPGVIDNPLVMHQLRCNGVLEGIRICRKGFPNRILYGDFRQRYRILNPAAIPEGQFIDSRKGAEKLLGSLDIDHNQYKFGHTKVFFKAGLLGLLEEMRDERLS

T1 sequence (P02602 2-192): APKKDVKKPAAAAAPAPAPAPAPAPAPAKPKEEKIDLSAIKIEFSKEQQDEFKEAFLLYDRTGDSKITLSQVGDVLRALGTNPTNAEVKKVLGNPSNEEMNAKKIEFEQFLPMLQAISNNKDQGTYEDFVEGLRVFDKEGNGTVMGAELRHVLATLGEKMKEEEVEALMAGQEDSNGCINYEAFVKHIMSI
T1 sequence (P02608 2-170, further chain): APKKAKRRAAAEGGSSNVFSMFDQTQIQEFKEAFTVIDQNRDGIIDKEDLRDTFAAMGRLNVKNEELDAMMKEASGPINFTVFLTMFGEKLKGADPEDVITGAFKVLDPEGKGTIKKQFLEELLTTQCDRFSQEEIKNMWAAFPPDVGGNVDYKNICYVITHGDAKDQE
T1 sequence (A0A5F9CQ93 entry or part of it): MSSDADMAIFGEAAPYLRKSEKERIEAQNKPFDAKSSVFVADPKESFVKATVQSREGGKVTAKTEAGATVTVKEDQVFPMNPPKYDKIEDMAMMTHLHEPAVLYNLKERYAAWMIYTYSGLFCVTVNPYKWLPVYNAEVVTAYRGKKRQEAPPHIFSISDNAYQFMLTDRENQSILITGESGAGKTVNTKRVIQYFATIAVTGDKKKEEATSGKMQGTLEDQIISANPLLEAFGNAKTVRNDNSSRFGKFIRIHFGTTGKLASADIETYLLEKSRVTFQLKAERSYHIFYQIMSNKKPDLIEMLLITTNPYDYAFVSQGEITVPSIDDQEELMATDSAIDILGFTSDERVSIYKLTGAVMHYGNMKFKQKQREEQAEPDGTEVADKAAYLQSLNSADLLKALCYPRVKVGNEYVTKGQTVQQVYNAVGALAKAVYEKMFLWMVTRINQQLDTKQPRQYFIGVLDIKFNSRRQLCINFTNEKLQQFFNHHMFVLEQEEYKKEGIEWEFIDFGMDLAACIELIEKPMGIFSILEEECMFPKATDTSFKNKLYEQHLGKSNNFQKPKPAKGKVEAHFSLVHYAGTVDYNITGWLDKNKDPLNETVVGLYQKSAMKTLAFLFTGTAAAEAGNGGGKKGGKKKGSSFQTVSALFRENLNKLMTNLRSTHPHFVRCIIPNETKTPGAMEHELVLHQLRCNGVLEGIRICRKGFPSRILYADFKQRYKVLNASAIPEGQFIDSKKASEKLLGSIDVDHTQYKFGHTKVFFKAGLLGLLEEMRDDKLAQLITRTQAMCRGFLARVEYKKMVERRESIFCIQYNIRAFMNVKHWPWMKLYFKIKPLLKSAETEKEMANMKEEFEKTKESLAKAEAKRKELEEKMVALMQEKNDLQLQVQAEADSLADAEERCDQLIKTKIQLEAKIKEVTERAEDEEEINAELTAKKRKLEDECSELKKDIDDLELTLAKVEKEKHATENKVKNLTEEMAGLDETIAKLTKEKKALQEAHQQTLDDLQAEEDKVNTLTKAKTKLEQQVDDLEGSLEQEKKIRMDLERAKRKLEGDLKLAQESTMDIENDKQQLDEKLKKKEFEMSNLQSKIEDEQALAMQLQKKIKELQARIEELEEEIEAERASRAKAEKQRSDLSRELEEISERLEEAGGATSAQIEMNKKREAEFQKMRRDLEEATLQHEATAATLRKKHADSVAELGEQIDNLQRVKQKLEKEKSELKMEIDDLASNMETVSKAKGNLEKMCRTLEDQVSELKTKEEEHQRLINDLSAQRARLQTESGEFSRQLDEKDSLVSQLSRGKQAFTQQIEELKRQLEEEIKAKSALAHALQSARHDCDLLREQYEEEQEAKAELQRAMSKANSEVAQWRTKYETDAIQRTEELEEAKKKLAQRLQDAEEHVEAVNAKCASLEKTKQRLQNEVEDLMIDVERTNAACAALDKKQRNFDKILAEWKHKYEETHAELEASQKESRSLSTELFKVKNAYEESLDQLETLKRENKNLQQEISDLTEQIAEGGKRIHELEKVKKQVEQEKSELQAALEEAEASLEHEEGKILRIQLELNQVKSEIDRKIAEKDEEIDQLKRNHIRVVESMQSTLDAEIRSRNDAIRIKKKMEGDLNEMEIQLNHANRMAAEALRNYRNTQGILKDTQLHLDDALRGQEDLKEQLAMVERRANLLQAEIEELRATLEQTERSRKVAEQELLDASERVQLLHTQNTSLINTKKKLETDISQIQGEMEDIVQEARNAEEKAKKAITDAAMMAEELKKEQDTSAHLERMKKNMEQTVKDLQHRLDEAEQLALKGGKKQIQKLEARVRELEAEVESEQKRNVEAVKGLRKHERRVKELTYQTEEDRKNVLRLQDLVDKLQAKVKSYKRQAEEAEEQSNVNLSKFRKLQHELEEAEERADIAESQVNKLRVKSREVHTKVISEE

| SMILES | IC50 [1] [µM] | co-crystal structure at 2.33 Å with aficamten and vanadate [2] |
| --- | --- | --- |
| CCc1nc(-c2ccc3c(c2)CC[C@H]3NC(=O)c2cnn(C)c2)no1 [aficamten] | 6.52 |  |
| Nc1ncnc2c1ncn2[C@@H]1O[C@H](COP(=O)(O)OP(=O)(O)O)[C@@H](O)[C@H]1O [ADP] |  | the upper inset displays ADP and Vanadate and the lower inset displays aficamten |
